Values of other authors as cited in PubChem BioAssay AID1259409 (Chemical Carcinogenesis Research Information System (CCRIS), 2018).

Tested on: rodent chemically induced tumor inhibition, incidence and multiplicity
Assay: CCRIS tumor inhibitor studies
Details: Dose [Inhibitor]: 0

Structure (SMILES)	tumour outcome (control, treated, inhibition, significance) (Carcinogen: N-NITROSOBIS(2-HYDROXYPROPYL)AMINE, 53609-64-6, 1.2% IN DIET FOR 30 WK BEGINNING POST CARCINOGEN TREATMENT (STUDY DURATION: 35 WK), Route [Inhibitor]: ORAL, Species: HAMSTER, Strain/Sex: SYRIAN/MALE, Target Tissue: Type of Lesion: PANCREAS: ADENOCARCINOMA, Dose [Carcinogen]: 500 MG/KG 1/WK FOR 5 WK, Promoter: NONE USED)	tumour outcome (control, treated, inhibition, significance) (Carcinogen: 7,12-DIMETHYLBENZ[A]ANTHRACENE, 57-97-6, 0.005% IN DIET BEGINNING 1 D POST CARCINOGEN TREATMENT AND CONTINUING FOR DURATION OF STUDY (STUDY DURATION: 18 WK), Route [Inhibitor]: ORAL, Species: MOUSE, Strain/Sex: ICR/FEMALE, Target Tissue: Type of Lesion: SKIN: PAPILLOMA, Dose [Carcinogen]: 50 UG IN 100 µL ACETONE ONCE, Promoter: 12-O-TETRADECANOYLPHORBOL-13-ACETATE, 16561-29-8)	tumour outcome (control, treated, inhibition, significance) (Carcinogen: 7,12-DIMETHYLBENZ[A]ANTHRACENE, 57-97-6, 0.005% IN DIET BEGINNING 1 D POST CARCINOGEN TREATMENT AND CONTINUING FOR DURATION OF STUDY (STUDY DURATION: 25 WK), Route [Inhibitor]: ORAL, Species: MOUSE, Strain/Sex: ICR/FEMALE, Target Tissue: Type of Lesion: SKIN: PAPILLOMA, Dose [Carcinogen]: 50 UG IN 100 µL ACETONE ONCE, Promoter: 12-O-TETRADECANOYLPHORBOL-13-ACETATE, 16561-29-8, MEZEREIN, 34807-41-5, Promoter: 12-O-TETRADECANOYLPHORBOL-13-ACETATE, 16561-29-8, MEZEREIN, 34807-41-5)	tumour outcome (control, treated, inhibition, significance) (Carcinogen: 7,12-DIMETHYLBENZ[A]ANTHRACENE, 57-97-6, 2 UMOL 2/WK 30 MIN PRIOR TO EACH PROMOTER DOSE BEGINNING 1 WK POST CARCINOGEN DOSE (STUDY DURATION: 18 WK), Route [Inhibitor]: DERMAL, Species: MOUSE, Strain/Sex: ICR/FEMALE, Target Tissue: Type of Lesion: SKIN: PAPILLOMA, Dose [Carcinogen]: 50 UG ONCE, Promoter: 12-O-TETRADECANOYLPHORBOL-13-ACETATE, 16561-29-8)	tumour outcome (control, treated, inhibition, significance) (Carcinogen: 7,12-DIMETHYLBENZ[A]ANTHRACENE, 57-97-6, 20 UMOL/MOUSE 2/WK FOR 18 WK APPLIED 5 MIN PRIOR TO EACH PROMOTER DOSE (STUDY DURATION: 19 WK), Route [Inhibitor]: DERMAL, Species: MOUSE, Strain/Sex: CD-1/FEMALE, Target Tissue: Type of Lesion: SKIN: PAPILLOMA, Dose [Carcinogen]: 100 UG IN 200 µL ACETONE ONCE, Promoter: 12-O-TETRADECANOYLPHORBOL-13-ACETATE, 16561-29-8)
CCCCC(CC)COC(=O)c1ccccc1C(=O)OCC(CC)CCCC (stereo not given)	8/17 (47%), 7/19 (37%), 21%, not significant	–	–	–	–
COc1ccc2cc1Oc1ccc(cc1)C[C@H]1c3c(cc4c(c3Oc3cc5c(cc3OC)CCN(C)[C@@H]5C2)OCO4)CCN1C	–	100%, 95%, 5%, not significant	75%, 45%, 40%, not calculated	100%, 27%, 73%, not calculated	100%, 30%, 70%, p<0.01
